Data on 13 compounds can be found in US11034725B2, “Compositions and methods for treating cardiovascular disease” (Genentech, Inc., priority 2016, dated 2021).

Read-outs that look alike come from different tables or passages of the source. Bridge positions count the residues as written; N and C are the ends. Square brackets hold non-standard residues; d marks the D form. Peptide text beside a SMILES is read from it. * marks the point of attachment. Fmoc = O=C(OCC1c2ccccc2-c2ccccc21)*; Aun = NCCCCCCCCCCC(=O)O Some results are limits rather than exact numbers.

The test system of one assay is His-EGF(A)-Fc. Kind of assay: His-EGF(A)-Fc TR-FRET counterscreen. (TR-FRET usually uses a lanthanide donor and a delayed reading to cut background.)
The next assay deals with PCSK9 (Homo sapiens, UniProt Q8NBP7). Kind of assay: PCSK9/EGF(A) TR-FRET binding assay. The note with it: TR-FRET, Example 7; read-out: PCSK9/EGF(A) IC50.
PCSK9, sequence (Q8NBP7 153-692): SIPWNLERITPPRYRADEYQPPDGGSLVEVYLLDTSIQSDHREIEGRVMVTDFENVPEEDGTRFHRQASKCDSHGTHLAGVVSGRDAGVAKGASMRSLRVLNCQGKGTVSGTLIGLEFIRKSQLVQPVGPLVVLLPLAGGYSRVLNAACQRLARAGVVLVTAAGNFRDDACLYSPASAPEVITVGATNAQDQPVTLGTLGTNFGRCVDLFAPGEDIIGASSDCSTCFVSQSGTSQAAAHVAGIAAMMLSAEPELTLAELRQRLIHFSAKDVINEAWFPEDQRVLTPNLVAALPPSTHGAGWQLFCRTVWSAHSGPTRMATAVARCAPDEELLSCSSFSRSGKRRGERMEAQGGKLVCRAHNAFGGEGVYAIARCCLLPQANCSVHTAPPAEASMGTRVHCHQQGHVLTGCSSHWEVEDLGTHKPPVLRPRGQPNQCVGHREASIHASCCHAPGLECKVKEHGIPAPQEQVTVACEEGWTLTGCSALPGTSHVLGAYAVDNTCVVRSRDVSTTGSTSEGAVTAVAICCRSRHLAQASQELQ
PCSK9, sequence (Q8NBP7 31-152 partner limits assumed): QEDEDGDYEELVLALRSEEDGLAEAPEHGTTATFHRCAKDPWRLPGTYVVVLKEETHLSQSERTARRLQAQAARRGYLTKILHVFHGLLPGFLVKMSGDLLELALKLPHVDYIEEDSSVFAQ
A further assay concerns the target T1, PCSK9Δhelix (Homo sapiens, UniProt Q8NBP7).
T1 construct: Human PCSK9 construct M1-Q692 with an engineered TEV site (residue deletion Y166, R167); made in house; host or cells: CHO
The assay is described as follows: PCSK9Δhelix/Ab20 TR-FRET binding assay.

[1] abbreviates: TR-FRET counterscreen, Table 8D, * = some inhibition at highest concentrations, not sufficient to fit an IC50.
Setting [2] is: TR-FRET, Example 7, read-out: PCSK9Δhelix/Ab20 IC50.

T1 sequence (Q8NBP7 with tags, fused parts or gaps limits assumed): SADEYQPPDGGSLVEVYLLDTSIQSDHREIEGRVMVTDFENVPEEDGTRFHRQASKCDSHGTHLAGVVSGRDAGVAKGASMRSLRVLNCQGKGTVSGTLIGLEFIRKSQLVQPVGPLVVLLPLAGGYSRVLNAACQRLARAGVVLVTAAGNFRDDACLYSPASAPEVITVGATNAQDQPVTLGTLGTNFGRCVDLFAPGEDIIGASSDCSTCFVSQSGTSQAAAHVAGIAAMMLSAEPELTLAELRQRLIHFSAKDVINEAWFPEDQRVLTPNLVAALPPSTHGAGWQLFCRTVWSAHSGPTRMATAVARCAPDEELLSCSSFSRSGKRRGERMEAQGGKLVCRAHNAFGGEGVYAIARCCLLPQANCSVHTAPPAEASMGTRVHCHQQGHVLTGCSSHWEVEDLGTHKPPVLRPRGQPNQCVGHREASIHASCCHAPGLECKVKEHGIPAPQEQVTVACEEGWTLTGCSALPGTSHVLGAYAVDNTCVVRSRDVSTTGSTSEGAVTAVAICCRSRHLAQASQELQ
T1 sequence (Q8NBP7 31-152 partner limits assumed): as the sequence (Q8NBP7 31-152 partner limits assumed) above
Description for His-EGF(A)-Fc: (§1) The former was based on a TF-FRET assay to measure the association of the EGF(A) domain of the LDLR to PCSK9 (“PCSK9/EGF(A) binding assay”) whilst the latter was based on a TR-FRET assay to measure binding of Ab20 to PCSK9Δhelix (“PCSK9Δhelix/Ab20 binding assay”).
(§2) The ability of compounds to inhibit binding to PCSK9 was evaluated with a panel of time-resolved fluorescence resonance energy transfer (TR-FRET) binding assays. […] The PCSK9Δhelix/Ab20 binding assay evaluated the ability of compounds to compete with Ab20 for binding to the N-terminal groove region in a His-tagged, PCSK9Δhelix construct. […] Signal generation in the PCSK9 binding assays was dependent upon the binding interaction to bring into close proximity the His-tag on the PCSK9 and the Fc-tag on the ligand. Anti-His-APC was bound to the His-tag, and anti-Fc-europium was bound to the Fc-tag. When these two antibodies were in close proximity and were irradiated with light at 340 nm, the europium was excited and emitted energy at 615 nm. This energy was taken up by the APC and was emitted as light at 665 nm. Compounds that competed with the ligand reduced the energy transfer and thus the emission at 665 nm. In the His-EGFA-Fc molecule in the counterscreen, the two tags were always in close proximity, thus any reduction in emission at 665 nm was due to interference with the detection system.
(§3) Compounds were solubilized and dilutions were prepared in DMSO. […] The plate was centrifuged to mix the well contents and allowed to incubate for 30 min. […] The TR-FRET signal was read on a ViewLux reader (PerkinElmer) with excitation at 340 nm and emission at 615 and 665 nm with a 50-μs time delay between excitation and measurement of emission. The TR-FRET ratio was calculated as the fluorescence emission at 665 nm divided by the fluorescence emission at 615 nm. The normalized TR-FRET ratios were plotted as a function of the compound concentrations, and the IC50 values were determined using a 4-parameter logistic regression.
(§4) In black 1536-well assay plates (MaKO, Aurora® Microplates, Whitefish, Mont.), 40 nL of peptide in DMSO were preincubated with 2 μL His-tagged PCSK9 plus anti-His-allophycocyanin in assay buffer (50 mM Tris-HCl, pH 7.5, 150 mM NaCl, 2 mM CaCl2, 0.01% Tween®-20, 0.1% bovine gamma globulins, and protease inhibitor cocktail) for 30 min. Then 2 μL of Fc-tagged ligand and anti-Fc-europium in assay buffer were added and allowed to incubate for 2 h.
Description for PCSK9Δhelix: as §1, §2, §3, §4

In the case of `CC[C@H](C)[C@@H]1NC(=O)[C@H](CCCNC(=N)N)NC(=O)CNC(=O)[C@H](CC(C)C)NC(=O)[C@H](CC(N)=O)NC(=O)[C@H](Cc2c[nH]c3ccccc23)NC(=O)[C@@H](NC(=O)CNC(=O)[C@H](CO)NC(=O)CNC(=O)[C@@H](NC(=O)[C@H](Cc2c[nH]c3ccccc23)NC(=O)[C@H](CC(=O)O)NC(=O)[C@H](CC(C)C)NC(=O)[C@H](Cc2ccc(O)cc2)NC(=O)[C@H](CCC(=O)O)NC(=O)[C@H](CCC(=O)O)NC(=O)[C@H](Cc2c[nH]c3ccccc23)NC(=O)[C@H](CO)NC(=O)[C@@H](NC(=O)[C@H](Cc2ccccc2)NC(=O)[C@@H](NC(=O)[C@@H](NC(C)=O)[C@@H](C)O)C(C)C)[C@@H](C)O)C(C)C)CSSC[C@@H](C(N)=O)NC(=O)CNC(=O)[C@H](CCC(N)=O)NC(=O)[C@H](CO)NC(=O)CNC1=O` [Compound 11] (Ac-TVFTSWEEYLDWVGSGCWNLGRIGSQGC-NH2; disulfide 17-28), the IC50 was greater than 50 µM in the assay on His-EGF(A)-Fc (counterscreen, Example 7) and 340 nM on PCSK9.

In the case of `CC[C@H](C)[C@@H]1NC(=O)[C@H](CCCNC(=N)N)NC(=O)[C@H](CCCCN)NC(=O)[C@H](CC(C)C)NC(=O)[C@H](CC(N)=O)NC(=O)[C@H](Cc2c[nH]c3ccccc23)NC(=O)[C@@H](NC(=O)CNC(=O)[C@H](CO)NC(=O)CNC(C)=O)CSSC[C@@H](C(=O)N[C@@H](Cc2c[nH]c3ccccc23)C(N)=O)NC(=O)CNC(=O)[C@H](CCC(N)=O)NC(=O)[C@H](CO)NC(=O)CNC1=O` [Compound 40] (Ac-GSGCWNLKRIGSQGCW-NH2; disulfide 4-15), the IC50 in the assay on His-EGF(A)-Fc (setting [1]) is greater than 50 µM; on PCSK9Δhelix (PCSK9Δhelix/Ab20 IC50, TR-FRET, Table 8D, disulfide-cyclized extension peptides), 2410 nM.

For `CC[C@H](C)[C@@H]1NC(=O)[C@H](CCCNC(=N)N)NC(=O)[C@H](CCCCN)NC(=O)[C@H](CC(C)C)NC(=O)[C@H](CC(N)=O)NC(=O)[C@H](Cc2c[nH]c3ccccc23)NC(=O)[C@H](CC(C)C)NC(=O)[C@@H](NC(=O)[C@H](CCSC)NC(C)=O)CSSC[C@@H](C(=O)N[C@@H](CCC(=O)O)C(=O)N[C@@H](Cc2ccc(O)cc2)C(N)=O)NC(=O)[C@H](CCC(N)=O)NC(=O)[C@H](CO)NC(=O)CNC1=O` [Compound 63] (Ac-MCLWNLKRIGSQCEY-NH2; disulfide 2-13), the IC50 was 41 µM in the assay on His-EGF(A)-Fc (setting [1]) and 6000 nM on PCSK9Δhelix (TR-FRET, Table 8D, disulfide-cyclized extension peptides, read-out: PCSK9Δhelix/Ab20 IC50). In addition, the “inhibition in the PCSK9Δhelix/Ab20 binding assay” value on PCSK9Δhelix is “low micromolar range”.

For `CC(=O)N[C@H]1CSSC[C@@H](C(N)=O)NC(=O)CCCCCCCCCCNC(=O)[C@H](CCCNC(=N)N)NC(=O)[C@H](CCC(N)=O)NC(=O)[C@H](CC(C)C)NC(=O)[C@H](CC(N)=O)NC(=O)[C@H](Cc2c[nH]c3ccccc23)NC(=O)[C@@H]2CCCN2C(=O)[C@H](CC(C)C)NC(=O)[C@H](CCCNC(=N)N)NC1=O` [Compound 83] (Ac-CRLPWNLQR[Aun]C-NH2; disulfide 1-11 (inferred)), in the assay on His-EGF(A)-Fc (setting [1]), the IC50 is greater than 50 µM. Moreover, the “inhibition in the PCSK9Δhelix/Ab20 binding assay” value at PCSK9Δhelix is listed as “removes inhibition”.

Consider `CC[C@H](C)[C@H](NC(=O)[C@H](CCCNC(=N)N)NC(=O)[C@H](CCCCN)NC(=O)[C@H](CC(C)C)NC(=O)[C@H](CC(N)=O)NC(=O)[C@H](Cc1c[nH]c2ccccc12)NC(=O)[C@H](C)NC(=O)CCCCCNC(=O)[C@@H](NC(=O)[C@H](Cc1c[nH]c2ccccc12)NC(=O)[C@H](CC(=O)O)NC(=O)[C@H](CC(C)C)NC(=O)[C@H](Cc1ccc(O)cc1)NC(=O)[C@H](CCC(=O)O)NC(=O)[C@H](CCC(=O)O)NC(=O)[C@H](Cc1c[nH]c2ccccc12)NC(=O)[C@H](CO)NC(=O)[C@@H](NC(=O)[C@H](Cc1ccccc1)NC(=O)[C@@H](NC(=O)[C@@H](NC(C)=O)[C@@H](C)O)C(C)C)[C@@H](C)O)C(C)C)C(=O)NCC(=O)N[C@@H](CO)C(N)=O` [Compound 91], for which the IC50 in the assay on His-EGF(A)-Fc (counterscreen, Example 7) is greater than 50 µM; on PCSK9Δhelix (setting [2]), 10 nM.

Consider `CC[C@H](C)[C@H](NC(=O)[C@H](CCCNC(=N)N)NC(=O)[C@H](CCCCN)NC(=O)[C@H](CC(C)C)NC(=O)[C@H](CC(N)=O)NC(=O)[C@H](Cc1c[nH]c2ccccc12)NC(=O)[C@H](C)NC(=O)CCCCCNC(=O)[C@@H](NC(=O)[C@H](Cc1c[nH]c2ccccc12)NC(=O)[C@H](CC(=O)O)NC(=O)[C@H](CC(C)C)NC(=O)[C@H](Cc1ccc(O)cc1)NC(=O)[C@H](CCC(=O)O)NC(=O)[C@H](CCC(=O)O)NC(=O)[C@H](Cc1c[nH]c2ccccc12)NC(=O)[C@H](CO)NC(=O)[C@@H](NC(=O)[C@H](Cc1ccccc1)NC(=O)[C@@H](NC(=O)[C@@H](NC(C)=O)[C@@H](C)O)C(C)C)[C@@H](C)O)C(C)C)C(=O)NCC(N)=O` [Compound 92], for which the IC50 in the assay with His-EGF(A)-Fc (counterscreen, Example 7) is greater than 50 µM; on PCSK9Δhelix (setting [2]), 13 nM.

Turning to `CC[C@H](C)[C@H](NC(=O)[C@H](CCCNC(=N)N)NC(=O)[C@H](CCCCN)NC(=O)[C@H](CC(C)C)NC(=O)[C@H](CC(N)=O)NC(=O)[C@H](Cc1c[nH]c2ccccc12)NC(=O)[C@H](C)NC(=O)CCCCCNC(=O)[C@@H](NC(=O)[C@H](Cc1c[nH]c2ccccc12)NC(=O)[C@H](CC(=O)O)NC(=O)[C@H](CC(C)C)NC(=O)[C@H](Cc1ccc(O)cc1)NC(=O)[C@H](CCC(=O)O)NC(=O)[C@H](CCC(=O)O)NC(=O)[C@H](Cc1c[nH]c2ccccc12)NC(=O)[C@H](CO)NC(=O)[C@@H](NC(=O)[C@H](Cc1ccccc1)NC(=O)[C@@H](NC(=O)[C@@H](NC(C)=O)[C@@H](C)O)C(C)C)[C@@H](C)O)C(C)C)C(N)=O` [Compound 93], the IC50 in the assay with His-EGF(A)-Fc (counterscreen, Example 7) was greater than 50 µM; at PCSK9Δhelix (setting [2]) it was 16 nM.

`CC(=O)N[C@H](C(=O)N[C@H](C(=O)N[C@@H](Cc1ccccc1)C(=O)N[C@H](C(=O)N[C@@H](CO)C(=O)N[C@@H](Cc1c[nH]c2ccccc12)C(=O)N[C@@H](CCC(=O)O)C(=O)N[C@@H](CCC(=O)O)C(=O)N[C@@H](Cc1ccc(O)cc1)C(=O)N[C@@H](CC(C)C)C(=O)N[C@@H](CC(=O)O)C(=O)N[C@@H](Cc1c[nH]c2ccccc12)C(=O)N[C@H](C(=O)NCCCCCC(=O)N[C@@H](C)C(=O)N[C@@H](Cc1c[nH]c2ccccc12)C(=O)N[C@@H](CC(N)=O)C(=O)N[C@@H](CC(C)C)C(=O)N[C@@H](CCCCN)C(=O)N[C@@H](CCCNC(=N)N)C(N)=O)C(C)C)[C@@H](C)O)C(C)C)[C@@H](C)O` [Compound 94]: the IC50 in the assay on His-EGF(A)-Fc (counterscreen, Example 7) was greater than 50 µM; on PCSK9Δhelix (setting [2]), 1410 nM.

On to `CC[C@H](C)[C@@H]1NC(=O)[C@H](CCCNC(=N)N)NC(=O)[C@H](CCCCN)NC(=O)[C@H](CC(C)C)NC(=O)[C@H](CC(N)=O)NC(=O)[C@H](Cc2c[nH]c3ccccc23)NC(=O)[C@@H](NC(=O)CNC(=O)[C@H](CO)NC(=O)CNC(=O)OCC2c3ccccc3-c3ccccc32)CSSC[C@@H](C(N)=O)NC(=O)CNC(=O)[C@H](CCC(N)=O)NC(=O)[C@H](CO)NC(=O)CNC1=O` [Compound 98] (Fmoc-GSGCWNLKRIGSQGC-NH2; disulfide 4-15), for which the IC50 was greater than 50 µM with His-EGF(A)-Fc (setting [1]) and 3600 nM at PCSK9Δhelix (PCSK9Δhelix/Ab20 IC50, TR-FRET, Example 7).

In the case of “Ac-TVFTSWEEYLDWVGGSGKLWNLGRV-NH2 [Compound 8]”, the IC50 in the assay with His-EGF(A)-Fc (counterscreen, Example 7) is greater than 50 µM; on PCSK9Δhelix (setting [2]) it was 49 nM.

For the compound “Ac-TVFTSWEEYLDWVGSGKLWNL-NH2 [Compound 6]”, the IC50 is greater than 50 µM with His-EGF(A)-Fc (counterscreen, Example 7) and 10000 nM on PCSK9Δhelix (setting [2]).

Turning to “Ac-TVFTSWEEYLDWVGSGKLWNLG-NH2 [Compound 5]”, the IC50 in the assay with His-EGF(A)-Fc (counterscreen, Example 7) was greater than 50 µM; on PCSK9Δhelix (setting [2]) it was 11100 nM.

With “Ac-TVFTSWEEYLDWVGSGKLWNLGR-NH2 [Compound 4]”, the IC50 in the assay on His-EGF(A)-Fc (counterscreen, Example 7) is greater than 50 µM; on PCSK9Δhelix (setting [2]), 1520 nM.
